Like-named read-outs stand apart in the source and are kept apart here.
Experiments:
KDM5A = KDM5A (Homo sapiens (Human), UniProt P29375); experiment: Biochemical KDM5A Inhibition Assay (HTRF); conditions: KDM5A protein, biotin-labelled H3K4-Me3 substrate
Experimental: Biochemical KDM5A Inhibition Assay
Using 384-well white Greiner784075 (Greiner), representative compounds were characterized for their inhibition of KDM5A using HTRF® technology (Cisbio Bioassays). Briefly, the test compounds, reference compounds, and DMSO control (typical compound concentration range 1 μM-[…], final assay concentration (FAC*) of DMSO 0.5%) were added to 384-well plate by the Echo® acoustic dispensing platform (Labcyte). Five (5) 1l of KDM5A protein (produced by the method described in Nat Chem Biol 12, 531-538 (2016)). (5-20 nM FAC*) in assay buffer (50 mM MES, 50 mM NaCl, 1 mM TCEP, 0.01% v/v Tween 20, 0.03% BSA, pH 6.5) was added to wells and plates were incubated for 10-20 minutes at 25 degrees celsius. Then, 5 μl of alpha-ketoglutaric acid (100 μM FAC*), biotin-labelled H3K4-Me3 substrate (Anaspec Cat #AS-64357-1; 200 nM FAC*), Fe(II)SO4 (100 μM FAC*) and ascorbic acid (2 mM FAC*) in assay buffer was added to wells and plates were incubated for 20 minutes at room temperature. The reaction was stopped with the addition of 10 μl of anti-H3K4-Me2-Eu(K) (Cisbio Bioassays Cat #61KA2KAH; 0.75 nM FAC**)+Streptavidin XL665 (Cisbio Bioassays Cat #610SAXLB; 25 nM FAC**) in HTRF detection buffer (Cisbio Bioassays Cat #62SDBRDF). The mixture was incubated for 30 minutes at room temperature before 340 nm excitation and measurement of dual emission at 620 nm and 665 run. *FAC: final assay concentration calculated based on 10 μl of the assay buffer**FAC: final assay concentration calculated based on 20 μl of the detection buffer
The raw data (a 665 nm and a 620 nm reading from each well) for individual assay plates were analyzed. The ratio of emissions was calculated using the following calculation: Ratio=(665 nm emission/620 nm emission)×10000. […] Compound IC50 values were calculated from graphs of % inhibition plotted against compound concentration, using a four parameter curve fit. [Results]

[1] = Metabolic Stability in Human Liver Microsomes; format: in vitro ADME
Experimental: Metabolic Stability in Human Liver Microsomes
Human liver microsome (BD Gentest Corporation, Cat No. #452161) incubations were conducted in duplicate in 96-well plates. Each well contains 40 μL of 0.1 M potassium phosphate buffer (pH 7.4), 4.125 mM MgCl2, 0.625 mg/mL liver microsomes, and test compound (1.25 μM). After 5-min preincubation at 37° C., 10 uL of 5.0 mM NADPH in 0.1M potassium phosphate buffer was added to initiate the enzymatic reaction. The final component concentrations are 0.1M potassium phosphate buffer (pH 7.4), 1.0 mM NADPH, 3.3 mM MgCl2, 0.5 mg/mL liver microsomes, and test compound (1.0 μM). Reactions were terminated at 0 and 60 min by adding 200 μL of ice-cold acetonitrile containing internal standard.
LC-MS/MS analysis was conducted as specified below.
The remaining at 60 min (%) of test compound was calculated from the peak area ratio (test compound/internal standard) of samples collected 0 and 60 min after the start of the reaction according to the formula described below. Remaining at 60 min (%)=peak area ratio of sample collected at 60 min/peak area ratio of sample collected at 0 min×100 [Results]

[2] = Brain Concentration in Mice; format: in vivo; conditions: mouse, mice (C57BL/6)
Experimental: Brain Concentration in Mice
Test compounds were orally administered to mice (C57BL/6) at 1 or 3 mg/kg. Brain samples were collected 2 h after the administration and homogenized with 3-fold volumes of distilled water.
LC-MS/MS analysis was conducted as specified below. Standard calibration samples were prepared using the same matrix and analyzed in the same manner.
Standard calibration samples were analyzed to calculate a regression equation from the peak area ratio (test compound/internal standard). The peak area ratio was determined for a measurement sample and assigned to the regression equation to calculate an assay value.

[3] = human, microsomes, 1 h, 1 μM, pH 7.4
[4] = po, orally administered, 1 mg/kg, brain 2 h after administration, read-out: Unbound-Brain Concentration at 2 h at 1 mg/kg
[5] = 0.5 mg/mL liver microsomes, 1.0 μM test compound, 1.0 mM NADPH, 37° C., 60 min

KDM5A, sequence (P29375 whole entry): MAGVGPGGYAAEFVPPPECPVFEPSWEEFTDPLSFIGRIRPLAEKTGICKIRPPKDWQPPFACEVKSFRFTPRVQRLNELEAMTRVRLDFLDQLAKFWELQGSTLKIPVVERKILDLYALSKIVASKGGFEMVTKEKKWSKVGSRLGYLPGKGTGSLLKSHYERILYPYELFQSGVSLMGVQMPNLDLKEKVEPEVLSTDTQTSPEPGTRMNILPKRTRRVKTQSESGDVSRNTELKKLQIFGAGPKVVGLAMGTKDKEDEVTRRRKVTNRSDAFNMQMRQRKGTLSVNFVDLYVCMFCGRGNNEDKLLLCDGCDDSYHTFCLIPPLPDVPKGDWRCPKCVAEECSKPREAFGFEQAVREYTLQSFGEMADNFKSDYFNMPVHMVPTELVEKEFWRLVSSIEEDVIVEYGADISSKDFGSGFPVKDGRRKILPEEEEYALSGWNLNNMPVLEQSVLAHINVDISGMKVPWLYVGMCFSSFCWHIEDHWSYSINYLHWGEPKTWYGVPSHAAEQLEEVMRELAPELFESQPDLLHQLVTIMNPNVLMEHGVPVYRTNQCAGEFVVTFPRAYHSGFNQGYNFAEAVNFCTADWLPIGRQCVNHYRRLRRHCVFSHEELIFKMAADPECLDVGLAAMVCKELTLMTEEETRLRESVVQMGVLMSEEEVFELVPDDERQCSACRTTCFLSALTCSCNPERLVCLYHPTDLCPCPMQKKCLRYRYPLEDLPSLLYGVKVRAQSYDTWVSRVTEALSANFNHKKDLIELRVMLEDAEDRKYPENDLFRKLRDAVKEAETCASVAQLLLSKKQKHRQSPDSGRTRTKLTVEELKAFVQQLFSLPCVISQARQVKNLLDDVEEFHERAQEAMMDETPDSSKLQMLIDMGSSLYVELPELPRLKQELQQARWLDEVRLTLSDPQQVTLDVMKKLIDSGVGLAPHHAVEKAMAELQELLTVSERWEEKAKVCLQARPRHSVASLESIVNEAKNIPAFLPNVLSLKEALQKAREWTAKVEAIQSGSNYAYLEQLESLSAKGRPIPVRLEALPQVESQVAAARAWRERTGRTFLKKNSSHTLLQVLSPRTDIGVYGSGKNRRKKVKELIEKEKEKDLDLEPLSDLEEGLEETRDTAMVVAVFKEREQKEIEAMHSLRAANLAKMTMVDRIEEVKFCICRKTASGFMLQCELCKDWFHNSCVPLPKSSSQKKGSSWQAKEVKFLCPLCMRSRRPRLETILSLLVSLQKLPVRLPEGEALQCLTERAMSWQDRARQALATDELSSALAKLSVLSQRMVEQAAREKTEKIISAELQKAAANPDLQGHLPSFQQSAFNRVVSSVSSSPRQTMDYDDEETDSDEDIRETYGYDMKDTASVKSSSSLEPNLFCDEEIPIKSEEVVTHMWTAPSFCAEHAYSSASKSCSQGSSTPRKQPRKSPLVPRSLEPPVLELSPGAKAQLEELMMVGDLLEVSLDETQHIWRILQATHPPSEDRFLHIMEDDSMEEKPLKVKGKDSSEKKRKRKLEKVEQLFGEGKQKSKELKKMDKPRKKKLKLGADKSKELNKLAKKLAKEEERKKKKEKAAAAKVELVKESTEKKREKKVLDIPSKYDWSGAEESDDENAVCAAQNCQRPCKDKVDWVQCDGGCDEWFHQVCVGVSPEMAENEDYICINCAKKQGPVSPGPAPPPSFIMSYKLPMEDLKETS

Structure (SMILES)	IC50 (KDM5A) [nM]	Metabolic stability in human liver microsomes (% remaining at 60 min) ([1]; human, microsomes, 1 h) [%]	further results
CC(C)n1cnc(C(=O)N2C[C@@H]3[C@H](C2)[C@H]3C2=NOC(C)(C)C2)c1 [Example 1, [(1R,5S,6r)-6-(5,5-dimethyl-4,5-dihydro-1,2-oxazol-3-yl)-3-azabicyclo[3.1.0]hex-3-yl](1-isopropyl-1H-imidazol-4-yl)methanone]	20	–	Metabolic stability in human liver microsomes (% remaining at 60 min) [1, 3]: 95%; concentration at 2 h ([2]; brain, oral, 2 h, values with * obtained by proportional calculation from the 3 mg/kg data, read-out: Unbound-Brain Concentration at 2 h at 1 mg/kg): 93.7 ng/g
CC[C@H](C)n1cnc(C(=O)N2C[C@@H]3[C@H](C2)[C@H]3C2=NOC(C)(C)C2)c1 [Example 12, {1-[(2S)-butan-2-yl]-1H-imidazol-4-yl}[(1R,5S,6S)-6-(5,5-dimethyl-4,5-dihydro-1,2-oxazol-3-yl)-3-azabicyclo[3.1.0]hex-3-yl]methanone]	60	–	Metabolic stability in human liver microsomes (% remaining at 60 min) [1, 3]: 100%; concentration at 2 h [2, 4]: 10.8 ng/g
CC1(C)CC([C@H]2[C@@H]3CN(C(=O)c4cn(C5(C)CC5)cn4)C[C@@H]32)=NO1 [Example 33, [(1R,5S,6r)-6-(5,5-dimethyl-4,5-dihydro-1,2-oxazol-3-yl)-3-azabicyclo[3.1.0]hex-3-yl][1-(1-methylcyclopropyl)-1H-imidazol-4-yl]methanone]	30	–	Metabolic stability in human liver microsomes (% remaining at 60 min) [1, 3]: 103%; concentration at 2 h [2, 4]: 62.1 ng/g
CC(C)n1cnc(C(=O)N2C[C@@H]3[C@H](C2)[C@H]3C(=O)C2CC2)c1 [Example 75, cyclopropyl{(1R,5S,6r)-3-[(1-isopropyl-1H-imidazol-4-yl)carbonyl]-3-azabicyclo[3.1.0]hex-6-yl}methanone]	400	102	–
CC(C)n1cnc(C(=O)N2C[C@@H]3[C@H](C2)[C@@]3(C)C2=NOC3(CC3)C2)c1 [Example 84, (1-isopropyl-1H-imidazol-4-yl)[(1R,5S,6r)-6-methyl-6-(4-oxa-5-azaspiro[2.4]hept-5-en-6-yl)-3-azabicyclo[3.1.0]hex-3-yl]methanone]	30	–	Metabolic stability in human liver microsomes (% remaining at 60 min) [1, 5]: 92%
CC(C)n1cnc(C(=O)N2C[C@@H]3[C@H](C2)[C@@]3(C)C(=O)NC(C)(C)C)c1 [Example 87, (1R,5S,6r)-N-tert-butyl-6-methyl-3-[1-(propan-2-yl)-1H-imidazole-4-carbonyl]-3-azabicyclo[3.1.0]hexane-6-carboxamide]	40	–	Metabolic stability in human liver microsomes (% remaining at 60 min) [1, 5]: 99%
CC(c1cc(C(=O)N2C[C@@H]3C(C4=NOC(C)(C)C4)[C@@H]3C2)n[nH]1)C1CC1 (stereo partly drawn) [Example 90, [5-(1-cyclopropylethyl)-1H-pyrazol-3-yl][(1R,5S,6r)-6-(5,5-dimethyl-4,5-dihydro-1,2-oxazol-3-yl)-3-azabicyclo[3.1.0]hex-3-yl]methanone]	50	–	Metabolic stability in human liver microsomes (% remaining at 60 min) [1, 5]: 100%
CC1CC(C2[C@H]3CN(C(=O)c4cc(C(C)C)[nH]n4)C[C@@H]23)=NO1 (stereo partly drawn) [Example 93, (5-isopropyl-1H-pyrazol-3-yl)[(1R,5S,6r)-6-(5-methyl-4,5-dihydro-1,2-oxazol-3-yl)-3-azabicyclo[3.1.0]hex-3-yl]methanone]	200	86	–
CC(C)c1cc(C(=O)N2C[C@@H]3[C@H](C2)[C@H]3C2=NO[C@H]3C[C@@H]23)n[nH]1 [Example 96, (5-isopropyl-1H-pyrazol-3-yl){(1R,5S,6r)-6-[(1S,5S)-2-oxa-3-azabicyclo[3.1.0]hex-3-en-4-yl]-3-azabicyclo[3.1.0]hex-3-yl}methanone]	30	83	–
CCN1C([C@H]2[C@@H]3CN(C(=O)c4cc(C(C)C)[nH]n4)C[C@@H]32)=NOC1(C)C [Example 110, [(1R,5S,6r)-6-(4-ethyl-5,5-dimethyl-4,5-dihydro-1,2,4-oxadiazol-3-yl)-3-azabicyclo[3.1.0]hex-3-yl](5-isopropyl-1H-pyrazol-3-yl)methanone]	50	85	–
Cc1nnc([C@H]2[C@@H]3CN(C(=O)c4cc(C(C)C)[nH]n4)C[C@@H]32)o1 [Example 119, (5-isopropyl-1H-pyrazol-3-yl)[(1R,5S,6r)-6-(5-methyl-1,3,4-oxadiazol-2-yl)-3-azabicyclo[3.1.0]hex-3-yl]methanone]	300	102	–
CC(C)c1cc(C(=O)N2C[C@@H]3[C@H](C2)[C@H]3c2nncn2-c2ccccc2)n[nH]1 [Example 121, (5-isopropyl-1H-pyrazol-3-yl)[(1R,5S,6r)-6-(4-phenyl-4H-1,2,4-triazol-3-yl)-3-azabicyclo[3.1.0]hex-3-yl]methanone]	40	114	–
Cc1nnc([C@H]2[C@@H]3CN(C(=O)c4cc(C(C)C)[nH]n4)C[C@@H]32)n1C1CCC1 [Example 124, [(1R,5S,6r)-6-(4-cyclobutyl-5-methyl-4H-1,2,4-triazol-3-yl)-3-azabicyclo[3.1.0]hex-3-yl](5-isopropyl-1H-pyrazol-3-yl)methanone]	40	97	–
COc1ccc2nnc([C@H]3[C@@H]4CN(C(=O)c5cc(C(C)C)[nH]n5)C[C@@H]43)n2c1 [Example 131, (5-isopropyl-1H-pyrazol-3-yl)[(1R,5S,6r)-6-(6-methoxy[1,2,4]triazolo[4,3-a]pyridin-3-yl)-3-azabicyclo[3.1.0]hex-3-yl]methanone]	10	84	–
CC(C)NC(=O)[C@H]1[C@@H]2CN(C(=O)c3cc(C(C)C)[nH]n3)C[C@@H]21 [Example 136, (1R,5S,6r)-N-(propan-2-yl)-3-[5-(propan-2-yl)-1H-pyrazole-3-carbonyl]-3-azabicyclo[3.1.0]hexane-6-carboxamide]	50	97	–
C[C@]1(C2=NOC3(CC3)C2)[C@@H]2CN(C(=O)c3cc(C4CC4)[nH]n3)C[C@@H]21 [Example 144, (5-cyclopropyl-1H-pyrazol-3-yl)[(1R,5S,6r)-6-methyl-6-(4-oxa-5-azaspiro[2.4]hept-5-en-6-yl)-3-azabicyclo[3.1.0]hex-3-yl]methanone]	20	–	Metabolic stability in human liver microsomes (% remaining at 60 min) [1, 5]: 101%
CC(C)c1cc(C(=O)N2C[C@@H]3[C@H](C2)[C@@]3(C)C(=O)NC(C)(C)C)n[nH]1 [Example 145, (1R,5S,6r)-N-tert-butyl-6-methyl-3-[5-(propan-2-yl)-1H-pyrazole-3-carbonyl]-3-azabicyclo[3.1.0]hexane-6-carboxamide]	90	99	–
CC(C)c1cc(C(=O)N2CC[C@@H](NC(=O)C3CC3)C2)[nH]n1 [comparative compound, (R)—N-(1-(3-isopropyl-1H-pyrazole-5-carbonyl)pyrrolidin-3-yl)cyclopropane carboxamide, reference compound]	–	–	concentration at 2 h ([2]; brain, oral, 2 h, comparative compound, dose not restated in the sentence, read-out: Unbound-Brain Concentration at 2 h): 2.5 ng/g

— patent publication US11691968B2, “Compound having KDM5 inhibitory activity and pharmaceutical use thereof” (ONO PHARMACEUTICAL CO., LTD., priority 2020, dated 2023)
